# Data from patent publication US20250368649A1, “TETRAHYDROPYRIDOPYRIMIDINE PAN-KRAS INHIBITORS” (Mirati Therapeutics, Inc., priority 2022, published 2025).
# Assays:
# ASPC1 cells = assay: Inhibition of KRas-mediated phosphorylation of ERK (Cisbio HTRF pERK), ASPC1 cells; type: cell-based; conditions: Homo sapiens, AsPC-1 cells; for IC50: ASPC1, 3 h, 3 hr compound incubation
# H727 cells = assay: Inhibition of KRas-mediated phosphorylation of ERK (Cisbio HTRF pERK), H727 cells; type: cell-based; conditions: Homo sapiens; for IC50: NCI-H727, 3 h, 3 hr compound incubation
# H460 cells = assay: Inhibition of KRas-mediated phosphorylation of ERK (Cisbio HTRF pERK), H460 cells; type: cell-based; conditions: Homo sapiens; for IC50: NCI-H460, 3 h, 3 hr compound incubation
# KRas G12V = KRas G12V (Homo sapiens, UniProt P01116, G12V); assay: biochemical; conditions: Binding to KRas (IC50 nM) G12V, TR-FRET displacement, KRas G12V
# A549 cells = assay: Inhibition of KRas-mediated phosphorylation of ERK (Cisbio HTRF pERK), A549 cells; type: cell-based; conditions: Homo sapiens; for IC50: A549, 3 h, 3 hr compound incubation
# PSN1 cells = assay: Inhibition of KRas-mediated phosphorylation of ERK (Cisbio HTRF pERK), PSN1 cells; type: cell-based; conditions: Homo sapiens, PSN1, 3 h
# Method in brief: (§1)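 Day 1: 6,000 cells/well plated, RPMI + 10% FBS.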
# HCT116 cells = assay: Inhibition of KRas-mediated phosphorylation of ERK (Cisbio HTRF pERK), HCT116 cells; type: cell-based; conditions: Homo sapiens; for IC50: HCT-116, 3 h, 3 hr compound incubation
# KRas G12D = KRas G12D (Homo sapiens, UniProt P01116, G12D); assay: biochemical; conditions: Binding to KRas (IC50 nM) G12D, TR-FRET displacement, KRas G12D
# H358 cells = assay: Inhibition of KRas-mediated phosphorylation of ERK (Cisbio HTRF pERK), H358 cells; type: cell-based; conditions: Homo sapiens; for IC50: NCI-H358, 3 h, 3 hr compound incubation
# KRas G12R = KRas G12R (Homo sapiens, UniProt P01116, G12R); assay: biochemical; conditions: Binding to KRas (IC50 nM) G12R, TR-FRET displacement, KRas G12R
# MKN1 cells = assay: Inhibition of KRas-mediated phosphorylation of ERK (Cisbio HTRF pERK), MKN1 cells; type: cell-based; conditions: Homo sapiens
# Method in brief: as §1
# [1] = 3 hour compound incubation, Cisbio pERK HTRF
# [2] = MKN-1, 3 hour compound incubation, Cisbio pERK HTRF
# [3] = MKN-1, 3 hr compound incubation
# Chain of KRas G12V (P01116 1-169 isoform P01116-2 G12V): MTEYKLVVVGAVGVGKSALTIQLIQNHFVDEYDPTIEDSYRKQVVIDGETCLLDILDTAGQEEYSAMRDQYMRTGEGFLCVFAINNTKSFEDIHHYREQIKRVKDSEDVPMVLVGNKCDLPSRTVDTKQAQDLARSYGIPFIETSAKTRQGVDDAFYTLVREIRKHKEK
# Chain of KRas G12R (P01116 1-169 isoform P01116-2 G12R): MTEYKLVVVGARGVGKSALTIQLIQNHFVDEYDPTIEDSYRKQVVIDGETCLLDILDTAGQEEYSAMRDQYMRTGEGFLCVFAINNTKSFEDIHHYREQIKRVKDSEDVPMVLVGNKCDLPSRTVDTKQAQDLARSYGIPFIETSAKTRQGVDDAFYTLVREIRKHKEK
# Chain of KRas G12D (P01116 1-169 isoform P01116-2 G12D): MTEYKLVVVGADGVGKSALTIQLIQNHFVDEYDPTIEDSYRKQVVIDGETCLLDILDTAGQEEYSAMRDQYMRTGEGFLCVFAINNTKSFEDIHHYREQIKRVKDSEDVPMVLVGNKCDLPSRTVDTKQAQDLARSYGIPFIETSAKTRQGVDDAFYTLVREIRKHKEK
Compound,IC50 (ASPC1 cells; Cisbio pERK HTRF) [nM],IC50 (H727 cells; Cisbio pERK HTRF) [nM],IC50 (H460 cells; Cisbio pERK HTRF) [nM],IC50 (KRas G12V) [nM],IC50 (A549 cells; Cisbio pERK HTRF) [nM],IC50 (PSN1 cells; [1]) [nM],IC50 (HCT116 cells; Cisbio pERK HTRF) [nM],IC50 (KRas G12D) [nM],IC50 (H358 cells; Cisbio pERK HTRF) [nM],IC50 (KRas G12R) [nM],IC50 (MKN1 cells; [2]) [nM],IC50 (ASPC1 cells) [nM],IC50 (H727 cells) [nM],IC50 (H460 cells) [nM],IC50 (A549 cells) [nM],IC50 (PSN1 cells; 3 hr compound incubation) [nM],IC50 (HCT116 cells) [nM],IC50 (H358 cells) [nM],IC50 (MKN1 cells; [3]) [nM],also measured
"CCc1c(F)ccc2cc(O)cc(N3CCc4c(nc(OC[C@]56CCCN5[C@H](CNS(=O)(=O)N(C)C)CC6)nc4N4CCCn5nc(C(=O)N(C)C)cc5C4)C3)c12 [Example 593, 5-(2-(((3S,7aR)-3-(((N,N-dimethylsulfamoyl)amino)methyl)tetrahydro-1H-pyrrolizin-7a(5H)-yl)methoxy)-7-(8-ethyl-7-fluoro-3-hydroxynaphthalen-1-yl)-5,6,7,8-tetrahydropyrido[3,4-d]pyrimidin-4-yl)-N,N-dimethyl-5,6,7,8-tetrahydro-4H-pyrazolo[1,5-a][1,4]diazepine-2-carboxamide]",19,50,158,< 2,114,9360,515,< 2,16,< 2,49.1,,,,,,,,,
"O=S1(=O)CCC2(CCCN(c3nc(OC[C@@]45CCCN4C[C@H](F)C5)nc4c3CCN(c3cc(O)cc5ccc(F)c(Cl)c35)C4)C2)N1 (stereo partly drawn) [Example 632, 7-(7-(8-chloro-7-fluoro-3-hydroxynaphthalen-1-yl)-2-(((2R,7aS)-2-fluorotetrahydro-1H-pyrrolizin-7a(5H)-yl)methoxy)-5,6,7,8-tetrahydropyrido[3,4-d]pyrimidin-4-yl)-2-thia-1,7-diazaspiro[4.5]decane 2,2-dioxide]",,,,< 2,,,,< 2,,< 2,,12,32,21,19,716,55,6,4.1,
"CCc1c(F)ccc2cc(O)cc(N3CCc4c(nc(OC[C@]56CCCN5[C@H](COC(=O)N(C)C)CC6)nc4N4CCCn5nc(C(=O)N(C)C)cc5C4)C3)c12 [Example 586, ((3S,7aR)-7a-(((4-(2-(dimethylcarbamoyl)-7,8-dihydro-4H-pyrazolo[1,5-a][1,4]diazepin-5(6H)-yl)-7-(8-ethyl-7-fluoro-3-hydroxynaphthalen-1-yl)-5,6,7,8-tetrahydropyrido[3,4-d]pyrimidin-2-yl)oxy)methyl)hexahydro-1H-pyrrolizin-3-yl)methyl dimethylcarbamate]",19,29,137,< 2,48,8160,336,< 2,23,< 2,38,,,,,,,,,
"CCc1c(F)ccc2cc(O)cc(N3CCc4c(nc(OC[C@@]56CCCN5C[C@H](F)C6)nc4N4CCCCn5nc(C(=O)N(C)C)c(Cl)c5C4)C3)c12 [Example 589, 3-chloro-5-(7-(8-ethyl-7-fluoro-3-hydroxynaphthalen-1-yl)-2-(((2R,7aS)-2-fluorotetrahydro-1H-pyrrolizin-7a(5H)-yl)methoxy)-5,6,7,8-tetrahydropyrido[3,4-d]pyrimidin-4-yl)-N,N-dimethyl-4,5,6,7,8,9-hexahydropyrazolo[1,5-a][1,4] diazocine-2-carboxamide]",6,3,16,< 2,6,1080,30,< 2,2,< 2,2.5,,,,,,,,,
"CCc1c(F)ccc2cc(O)cc(N3CCc4c(nc(OC[C@@]56CCCN5C[C@H](F)C6)nc4N4CCCn5nc(C(=O)N6C[C@H]7CCC[C@@H]6C7)cc5C4)C3)c12 [Example 616, ((1S,5R)-6-azabicyclo[3.2.1]octan-6-yl)(5-(7-(8-ethyl-7-fluoro-3-hydroxynaphthalen-1-yl)-2-(((2R,7aS)-2-fluorotetrahydro-1H-pyrrolizin-7a(5H)-yl)methoxy)-5,6,7,8-tetrahydropyrido[3,4-d]pyrimidin-4-yl)-5,6,7,8-tetrahydro-4H-pyrazolo[1,5-a][1,4]diazepin-2-yl)methanone]",,,,< 2,,,,4,,3,,17,17,48,24,> 10000,176,11,62.9,
"CCc1c(F)ccc2cc(O)cc(N3CCc4c(nc(OC[C@@]56CCCN5C[C@H](F)C6)nc4N4CCCn5nc(C(=O)N6CC[C@@H]7C[C@H]6CO7)cc5C4)C3)c12 [Example 624, ((1 S,5R)-6-oxa-2-azabicyclo[3.2.1]octan-2-yl)(5-(7-(8-ethyl-7-fluoro-3-hydroxynaphthalen-1-yl)-2-(((2R,7aS)-2-fluorotetrahydro-1H-pyrrolizin-7a(5H)-yl)methoxy)-5,6,7,8-tetrahydropyrido[3,4-d]pyrimidin-4-yl)-5,6,7,8-tetrahydro-4H-pyrazolo[1,5-a][1,4]diazepin-2-yl)methanone]",,,,< 2,,,,< 2,,< 2,,4,6,22,19,2470,66,4,10.5,

# More lines, main results first:
IC50 (ASPC1 cells; Cisbio pERK HTRF) [nM],IC50 (H727 cells; Cisbio pERK HTRF) [nM],IC50 (H460 cells; Cisbio pERK HTRF) [nM],IC50 (KRas G12V) [nM],IC50 (A549 cells; Cisbio pERK HTRF) [nM],IC50 (PSN1 cells; [1]) [nM],IC50 (HCT116 cells; Cisbio pERK HTRF) [nM],IC50 (KRas G12D) [nM],IC50 (H358 cells; Cisbio pERK HTRF) [nM],IC50 (KRas G12R) [nM],IC50 (MKN1 cells; [2]) [nM],IC50 (ASPC1 cells) [nM],IC50 (H727 cells) [nM],IC50 (H460 cells) [nM],IC50 (A549 cells) [nM],IC50 (PSN1 cells; 3 hr compound incubation) [nM],IC50 (HCT116 cells) [nM],IC50 (H358 cells) [nM],IC50 (MKN1 cells; [3]) [nM],Compound,also measured
460,779,276,< 2,455,6390,544,< 2,211,< 2,250,,,,,,,,,"CCc1c(F)ccc2cc(O)cc(N3CCc4c(nc(OCC5(CN(C)C)CC5)nc4N4CCCC5(CCO5)C4)C3)c12 (centres unmarked) [Example 588, 4-(2-((1-((dimethylamino)methyl)cyclopropyl)methoxy)-4-(1-oxa-6-azaspiro[3.5]nonan-6-yl)-5,8-dihydropyrido[3,4-d]pyrimidin-7(6H)-yl)-5-ethyl-6-fluoronaphthalen-2-ol]",
25,203,,< 2,,> 10000,,< 2,,< 2,37.2,,,,,,,,,"CCc1c(F)ccc2cc(O)cc(N3CCc4c(nc(OC[C@@]56CCCN5C[C@H](F)C6)nc4N4CCCn5nc(C(=O)N6CC7CC(C6)N(C)C7)cc5C4)C3)c12 (stereo partly drawn) [Example 500, (5-(7-(8-ethyl-7-fluoro-3-hydroxynaphthalen-1-yl)-2-(((2R,7aS)-2-fluorohexahydro-1H-pyrrolizin-7a-yl)methoxy)-5,6,7,8-tetrahydropyrido[3,4-d]pyrimidin-4-yl)-5,6,7,8-tetrahydro-4H-pyrazolo[1,5-a][1,4]diazepin-2-yl)(6-methyl-3,6-diazabicyclo[3.2.1]octan-3-yl)methanone]","inhibition at 0.1 µM (ASPC1 cells; ASPC1, single point at 100 nM, 3 hrs compound incubation): 91%; inhibition at 0.1 µM (H727 cells; NCI-H727, single point at 100 nM, 3 hrs compound incubation): 20%; inhibition at 0.1 µM (H460 cells; NCI-H460, single point at 100 nM, 3 hrs compound incubation): 22%; inhibition at 0.1 µM (A549 cells; single point at 100 nM, 3 hrs compound incubation): 46%; inhibition at 0.1 µM (HCT116 cells; HCT-116, single point at 100 nM, 3 hrs compound incubation): 11%; inhibition at 0.1 µM (H358 cells; NCI-H358, single point at 100 nM, 3 hrs compound incubation): 74%"
131,164,25,< 2,33,170,82,< 2,11,< 2,3.3,,,,,,,,,"O=C1NC(=O)[C@]2(CCCN(c3nc(OC[C@@]45CCCN4C[C@H](F)C5)nc4c3CCN(c3cc(O)cc5ccc(F)c(Cl)c35)C4)C2)N1 [Example 587, (R)-7-(7-(8-chloro-7-fluoro-3-hydroxynaphthalen-1-yl)-2-(((2R,7aS)-2-fluorotetrahydro-1H-pyrrolizin-7a(5H)-yl)methoxy)-5,6,7,8-tetrahydropyrido[3,4-d]pyrimidin-4-yl)-1,3,7-triazaspiro[4.5]decane-2,4-dione]",
